# Legend:
# Assay type in all cases: cell-based, human
# DU145 cells = experiment: 10-14 day Clonagenicity Assay (MTT), DU145; conditions: for percentage survival relative to the missense, n = 3: independent experiment n = 3, dilution point of maximum toxicity; for percentage survival relative to the missense, n = 1: independent experiment n = 1, dilution point of maximum toxicity; for percentage survival relative to the missense, n = 2: independent experiment n = 2, dilution point of maximum toxicity
# Excerpt: (§1) The Clonagenicity Assay represents a Cell Viability Screen that allows assessment of a cytotoxic insult at a variety of seed densities of cancer cell lines over an extended period of logarithmic growth, such that the definitive effect of the test substance can be accurately quantified. In this instance, the ‘cytotoxic insult’ to be tested involves the transfection of siRNA Oligomers to knockdown the expression of novel target Kinases and GPCRs as outlined previously. Cell number is quantified 10-14 days post siRNA transfection by MTT conversion as described in detail in Example 6.
# (§2) The Clonagenicity Assay is optimised for each cell line examined with respect to seed number. The seed number varies for each cell line and accounts for the differences in cell size, growth rate and sensitivity to transfection-induced toxicity for each cell line pursued. Cells lines given as models for this example include HCT15, MCF7, A549, SKOV3, DU145, U251, PC3, A498 and HeLa. The siRNA oligo to Survivin serves as a positive control for toxicity in this assay and the missense control oligomer acts as a negative control as described in detail in Examples 5 and 6. The c-Raf, BCL2 and PI3K siRNA oligomers serve as additional controls as previously mentioned. The Clonagenicity assay is performed as outlined below.
# (§3) Cells are seeded into a 96-well plate as described below and allowed to adhere overnight at 37° C. in a humidified atmosphere containing 5% CO2 in air. Wells are seeded with an appropriate cell number (cell line dependent) in Column 1 of the 96 well plates and this cell suspension is diluted 1 in 2 across the 96 well plates from Column 1 through to 6 (represented on the x-axis in results). Cells are next transfected with siRNA Oligomers, at a concentration of 2 μg/ml, against the genes of interest. Transfections continue for 4 hrs after which the transfection solution is removed and cells are refed with fresh medium and allow to incubate overnight. An additional media change@24 hrs post transfection is made to minimise toxicity of the transfection reagent. Cells are subsequently incubated for a 10-14 Day period post transfection at a 37° C. incubation as described above. Medium is renewed weekly following which MTT quantification is performed as described in Example 5.
# (§4) To be considered cytotoxic, the siRNA Oligo against the gene target must induce a decreased viability in a cell line across at least 2 seed densities in the clonagenicity assay, such that a significant difference between the target gene and MS is observed i.e. no crossing of the Standard Error bars is detected. The average percentage viability, relative to missense, is recorded for the dilution point at which Maximum Toxicity is induced is recorded in Table 13.
# (§5) Table 13 Clonagenicity Assay—This table gives the average percentage survival of the indicated cell lines relative to the missense in a clonagenicity assay, over 3 independent experiments. As an internal reference, the known survival gene ‘Survivin’, BCL2, c-Raf and PI3KR1 was also targeted by siRNA. When no Cytotoxic response is detected ‘-’ is recorded.
# A549 cells [1] = experiment: 10-14 day Clonagenicity Assay (MTT), A549; conditions: for percentage survival relative to the missense, n = 1: independent experiment n = 1, dilution point of maximum toxicity; for percentage survival relative to the missense, n = 3: independent experiment n = 3, dilution point of maximum toxicity
# Excerpt: as §1, §2, §3, §4, §5
# PC3 cells = experiment: 10-14 day Clonagenicity Assay (MTT), PC3; conditions: independent experiment n = 3, dilution point of maximum toxicity
# Excerpt: as §1, §2, §3, §4, §5
# SKOV3 cells = experiment: 10-14 day Clonagenicity Assay (MTT), SKOV3; conditions: for percentage survival relative to the missense, n = 1: independent experiment n = 1, dilution point of maximum toxicity; for percentage survival relative to the missense, n = 3: independent experiment n = 3, dilution point of maximum toxicity
# Excerpt: as §1, §2, §3, §4, §5
# U251 cells = experiment: 10-14 day Clonagenicity Assay (MTT), U251; conditions: for percentage survival relative to the missense, n = 1 / percentage survival relative to the missense, n = 2 / percentage survival relative to the missense, n = 3: U251, clonagenicity assay, dilution point of maximum toxicity; for percentage survival relative to the missense, n = 1: independent experiment n = 1; for percentage survival relative to the missense, n = 2: independent experiment n = 2; for percentage survival relative to the missense, n = 3: independent experiment n = 3; for viability/cytotoxicity in the Clonagenicity Assay: U251, 10-14 days post transfection, MTT, FIG. 35
# Excerpt: as §1, §2, §3
# Note seed density decreases from 3.5 to 0.1×10^3 cells on the x-axis and the y-axis represents cell number as quantified by MTT conversion, 10-14 days post transfection. This decrease is substantially greater that with the apoptosis gene, Survivin. […] Note seed density decreases from 3.5 to 0.1×10^3 cells on the x-axis and the y-axis represents cell number as quantified by MTT conversion, 10-14 days post transfection.
# as §4, §5
# A498 cells = experiment: 10-14 day Clonagenicity Assay (MTT), A498; conditions: for percentage survival relative to the missense, n = 1: independent experiment n = 1, dilution point of maximum toxicity; for percentage survival relative to the missense, n = 3: independent experiment n = 3, dilution point of maximum toxicity
# Excerpt: as §1, §2, §3, §4, §5
# MCF7 cells = experiment: Anchorage Independence/Soft Agar Assay, MCF7; parameters: PERCENTAGE SURVIVAL RELATIVE TO MS, MCF7, n = 2: tested at 2 µg; conditions: soft agar
# Procedure: (§6) The Anchorage Independence/Soft Agar Assay allows assessment of the influence of modulation of gene expression on clonal tumouroid formation by observing and quantifying tumouroid morphology and colony number over an extended period of logarithmic growth thereby ascertaining any cell death is induced.
# (§7) Cells are seeded into a 6-well plate and allowed to adhere overnight at 37° C. in a humidified atmosphere containing 5% CO2 in air. Cells are next transfected with siRNA Oligomers, at a concentration of 2 μg, against the genes of interest. Transfections continued for 4 hrs after which the transfection solution is removed and cells are refed with fresh medium and allowed incubate overnight. Transfected cells are next harvested for seeding into soft agar assay as described below. Cells are seeded at 5×10^4 cells per well of a 6 well plate and incubated over a 12/14-Day period whilst proliferating in a 0.05% Agar/Medium cell suspension at 37° C. in a humidified atmosphere containing 5% CO2 in air. Colonies formed are subsequently stained with Crystal Violet, their morphology is assessed and colonies formed are enumerated at a 4× magnification.
# (§8) The cytotoxic effect of each gene is determined by a reduction in colony number compared to our MS control, but any influence on the morphology of the colony is also noted.
# (§9) Examples of genes with a cytotoxic effect on knockdown as detected by the soft agar assay are outlined in Table 14. Table 14 gives the percentage survival of the indicated cell lines post transfection with siRNA oligomers to target genes relative to that of the missense in an anchorage independent assay. As an internal reference, the known survival gene Survivin was also targeted by siRNA. This table illustrates the magnitude of cytotoxicity induced by the knockdown of each target gene compared to the MS control i.e. the number of colonies formed are stained with Crystal violet and enumerated visually as discussed.
# A549 cells [2] = experiment: Anchorage Independence/Soft Agar Assay, A549; parameters: PERCENTAGE SURVIVAL RELATIVE TO MS, A549, n = 2: tested at 2 µg; conditions: soft agar
# Procedure: as §6, §7, §8, §9
# HCT15 cells [3] = experiment: Anchorage Independence/Soft Agar Assay, HCT15; parameters: PERCENTAGE SURVIVAL RELATIVE TO MS, HCT15, n = 2: tested at 2 µg; PERCENTAGE SURVIVAL RELATIVE TO MS, HCT15, n = 1: tested at 2 µg siRNA; conditions: soft agar
# Procedure: as §6, §7, §8, §9
# HCT15 cells [4] = experiment: 10-14 day Clonagenicity Assay (MTT), HCT15; conditions: independent experiment n = 1, dilution point of maximum toxicity
# Excerpt: as §1, §2, §3, §4, §5
# [5] = independent experiment n = 2, dilution point of maximum toxicity
Substance,"percentage survival relative to the missense, n = 3 (DU145 cells)","percentage survival relative to the missense, n = 1 (A549 cells [1])","percentage survival relative to the missense, n = 3 (A549 cells [1])","percentage survival relative to the missense, n = 3 (PC3 cells)","percentage survival relative to the missense, n = 1 (SKOV3 cells)","percentage survival relative to the missense, n = 3 (SKOV3 cells)","percentage survival relative to the missense, n = 1 (U251 cells)","percentage survival relative to the missense, n = 2 (U251 cells)","percentage survival relative to the missense, n = 3 (U251 cells)","percentage survival relative to the missense, n = 1 (A498 cells)","percentage survival relative to the missense, n = 3 (A498 cells)",also measured
PSKH1 SEQ 2 (sense UUGGCCGAGGCAGCUUCAGTT; antisense CUGAAGCUGCCUCGGCCAATT; chemistry not given here),35.2%,52.3%,28%,21.8%,42.3%,45.1%,52.1%,50.7%,34.1%,36%,6%,–
MPSK1 SEQ 2 (sense GCCGACAUGCAUCGCCUCUTT; antisense AGAGGCGAUGCAUGUCGGCTT; chemistry not given here),63.4%,39.1%,26.1%,16.7%,–,73.8%,–,–,59.3%,39.3%,8.9%,–
"siRNA TLK2B: sense GAUGGCGUGUAGAGAUAAGtt, antisense CUUAUCUCUACACGCCAUCtt (chain 1 GAUGGCGUGUAGAGAUAAGTT; chain 2 CUUAUCUCUACACGCCAUCTT; chemistry not given here)",–,–,–,–,–,–,–,–,–,–,–,"PERCENTAGE SURVIVAL RELATIVE TO MS, MCF7, n = 1 (MCF7 cells; experiment n = 1): 83.7%; PERCENTAGE SURVIVAL RELATIVE TO MS, MCF7, n = 2 (MCF7 cells; experiment n = 2): 99.5%; PERCENTAGE SURVIVAL RELATIVE TO MS, A549, n = 1 (A549 cells [2]; experiment n = 1): 65.8%; PERCENTAGE SURVIVAL RELATIVE TO MS, A549, n = 2 (A549 cells [2]; experiment n = 2): 36.7%; PERCENTAGE SURVIVAL RELATIVE TO MS, HCT15, n = 1 (HCT15 cells [3]; experiment n = 1): 67.3%; PERCENTAGE SURVIVAL RELATIVE TO MS, HCT15, n = 2 (HCT15 cells [3]; experiment n = 2): 115.6%"
"CNK/PRK (sense UCGUAGUGCUUGUACUUACtt; antisense GUAAGUACAAGCACUACGAtt; as printed in the source, key not given here)",16.8%,–,–,–,13.8%,50.1%,48.8%,–,44.5%,9.5%,7.2%,"percentage survival relative to the missense, n = 1 (DU145 cells): 46.1%; percentage survival relative to the missense, n = 2 (DU145 cells): 39%; percentage survival relative to the missense, n = 1 (HCT15 cells [4]): 75.9%"
"siRNA PI3KR1: control siRNA, sense AUGAUCGAUGUGCACGUUUtt, antisense AAACGUGCACAUCGAUCAUtt (sense AUGAUCGAUGUGCACGUUUTT; antisense AAACGUGCACAUCGAUCAUTT; chemistry not given here) [reference compound]",44.8%,–,38.3%,–,55.3%,41.7%,56.3%,–,21.4%,–,10%,–
MKNK SEQ 2 (sense AUUGCAAGGAGGUUCCAUCTT; antisense GAUGGAACCUCCUUGCAAUTT; chemistry not given here),53.6%,–,54.8%,39.5%,–,47.6%,–,43.6%,52.1%,56.2%,6%,–
"siRNA FLJ13351: sense CACCAAUUAGUUCAAAGCUtt, antisense AGCUUUGAACUAAUUGGUGtt (sense CACCAAUUAGUUCAAAGCUTT; antisense AGCUUUGAACUAAUUGGUGTT; chemistry not given here)",–,–,–,–,–,–,–,–,–,–,–,viability/cytotoxicity in the Clonagenicity Assay (U251 cells): does not induce cytotoxicity
CNK/PRK SEQ 2 (sense CAGAAAGACUGUGCACUACTT; antisense GUAGUGCACAGUCUUUCUGTT; chemistry not given here),–,62.5%,25.6%,28.3%,65.7%,72.2%,35.2%,–,57.5%,20%,8.2%,–
"siRNA STK6: sense GCCGGUUCAGAAUCAGAAGtt, antisense CUUCUGAUUCUGAACCGGCtt (sense GCCGGUUCAGAAUCAGAAGTT; antisense CUUCUGAUUCUGAACCGGCTT; chemistry not given here)",34.8%,56.8%,31.6%,–,10.2%,37.2%,12.8%,51.5%,25.8%,18.5%,32.6%,"percentage survival relative to the missense, n = 1 (DU145 cells): 48.1%; percentage survival relative to the missense, n = 2 (DU145 cells): 45.3%; percentage survival relative to the missense, n = 2 (A549 cells [1]; [5]): 69.6%; percentage survival relative to the missense, n = 2 (SKOV3 cells; [5]): 35.3%; percentage survival relative to the missense, n = 1 (HCT15 cells [4]): 69.6%; viability/cytotoxicity in the Clonagenicity Assay (U251 cells): decreases viability"

# Source: patent publication US20050019746A1, “Apoptosis-related kinase/GPCRs” (EiRx Therapeutics Limited, priority 2003, published 2005)
